Measurements as given in patent USRE48461E1, “Modulation of androgen receptor expression” (Ionis Pharmaceuticals, Inc., priority 2012, dated 2021).
Oligonucleotides are written 5' to 3', each unit as a sugar letter and its base; * is a phosphorothioate linkage, no mark a phosphodiester; rarer units and linkages stand in square brackets, end groups in braces. Plain capitals give the bases only. e = 2'-O-(2-methoxyethyl) (MOE); k = constrained ethyl (cEt); [5mC] = 5-methylcytosine; d = 2'-deoxy (DNA)

Key:
AR mRNA [1] = assay: Antisense inhibition of human AR in HuVEC cells, single concentration (electroporation, qRT-PCR RTS3559); format: cell-based; details: 500 nM ASO, electroporation, ~24 h, Table 1
Experimental: Antisense oligonucleotides were designed targeting an AR nucleic acid and were tested for their effects on AR mRNA in vitro. The antisense oligonucleotides were tested in a series of experiments that had similar culture conditions. […] Human primer probe set RTS3559 (forward sequence [NT], designated herein as SEQ ID NO: 9; reverse sequence [NT], designated herein as SEQ ID NO: 10; probe sequence [NT], designated herein as SEQ ID NO: 11) was used to measure mRNA levels. AR mRNA levels were adjusted according to total RNA content, as measured by RIBOGREEN®. […] A total of 155 oligonucleotides were tested. Additional antisense oligonucleotides were designed targeting an AR nucleic acid and were tested for their effects on AR mRNA in vitro. […] Human primer probe set RTS3559 was used to measure mRNA levels. AR mRNA levels were adjusted according to total RNA content, as measured by RIBOGREEN®. […] A total of 82 oligonucleotides were tested. Additional antisense oligonucleotides were designed targeting an AR nucleic acid and were tested for their effects on AR mRNA in vitro. […] Human primer probe set RTS3559 was used to measure mRNA levels. AR mRNA levels were adjusted according to total RNA content, as measured by RIBOGREEN®. […] A total of 40 oligonucleotides were tested. Additional antisense oligonucleotides were designed targeting an AR nucleic acid and were tested for their effects on AR mRNA in vitro. […] Human primer probe set RTS3559 was used to measure mRNA levels. AR mRNA levels were adjusted according to total RNA content, as measured by RIBOGREEN®. […] A total of 75 oligonucleotides were tested. Additional antisense oligonucleotides were designed targeting an AR nucleic acid and were tested for their effects on AR mRNA in vitro. […] Human primer probe set RTS3559 was used to measure mRNA levels. AR mRNA levels were adjusted according to total RNA content, as measured by RIBOGREEN®. […] A total of 616 oligonucleotides were tested. Additional antisense oligonucleotides were designed targeting an AR nucleic acid and were tested for their effects on AR mRNA in vitro. […] Human primer probe set RTS3559 was used to measure mRNA levels. AR mRNA levels were adjusted according to total RNA content, as measured by RIBOGREEN®. […] A total of 385 oligonucleotides were tested.

AR mRNA [2] = assay: Dose-dependent antisense inhibition of human AR in HuVEC cells (electroporation, qRT-PCR RTS3559, IC50); format: cell-based; details: HuVEC, ~16 h
Experimental: (§1) After a treatment period of approximately 16 hours, RNA was isolated from the cells and AR mRNA levels were measured by quantitative real-time PCR. Human AR primer probe set RTS3559 was used to measure mRNA levels. AR mRNA levels were adjusted according to total RNA content, as measured by RIBOGREEN®. […] The antisense oligonucleotides were tested in a series of experiments that had similar culture conditions.
as §1, §1, §1, §1
(§2) After a treatment period of approximately 16 hours, RNA was isolated from the cells and AR mRNA levels were measured by quantitative real-time PCR. Human AR primer probe set RTS3559 was used to measure mRNA levels. AR mRNA levels were adjusted according to total RNA content, as measured by RIBOGREEN®.
as §2

Substance | % inhibition (AR mRNA [1]) | percent inhibition of AR (AR mRNA [2]; 55.6 nM, Table 4) | percent inhibition of AR (AR mRNA [2]; 166.7 nM, Table 4) | percent inhibition of AR (AR mRNA [2]; 500.0 nM, Table 4) | percent inhibition of AR (AR mRNA [2]; 1500.0 nM, Table 4) | IC50 (AR mRNA [2]; Table 4) | percent inhibition of AR (AR mRNA [2]; 55.6 nM, Table 3) | percent inhibition of AR (AR mRNA [2]; 166.7 nM, Table 3) | percent inhibition of AR (AR mRNA [2]; 500.0 nM, Table 3) | percent inhibition of AR (AR mRNA [2]; 1500.0 nM, Table 3) | IC50 (AR mRNA [2]; Table 3) | other results
549332 (kG*k[5mC]*kG*d[5mC]*dT*d[5mC]*dT*dG*dA*d[5mC]*dA*dG*d[5mC]*k[5mC]*kT*k[5mC]; antisense) [compound 549332] | 84% | 35% | 57% | 79% | 79% | 0.104 µM |  |  |  |  |  | 
549334 (k[5mC]*kA*k[5mC]*d[5mC]*dT*dG*d[5mC]*dG*dG*dG*dA*dA*dG*k[5mC]*kT*k[5mC]; antisense) [compound 549334] | 83% | 29% | 46% | 63% | 72% | 0.253 µM |  |  |  |  |  | 
549338 (kG*kG*k[5mC]*dT*dG*dT*dG*dA*dT*dG*dA*dT*dG*k[5mC]*kG*kG; antisense) [compound 549338] | 83% | 32% | 47% | 67% | 78% | 0.154 µM |  |  |  |  |  | 
549345 (kT*k[5mC]*kT*dG*dG*dA*dA*d[5mC]*dA*dG*dA*dT*dT*k[5mC]*kT*kG; antisense) [compound 549345] | 82% |  |  |  |  |  |  |  |  |  |  | 
549347 (k[5mC]*kT*kT*d[5mC]*dG*d[5mC]*dG*d[5mC]*dA*d[5mC]*dG*d[5mC]*dT*k[5mC]*kT*kG; antisense) [compound 549347] | 84% | 15% | 37% | 62% | 71% | 0.357 µM |  |  |  |  |  | 
549358 (kA*kT*kG*dG*dT*dG*d[5mC]*dT*dG*dG*d[5mC]*d[5mC]*dT*k[5mC]*kG*k[5mC]; antisense) [compound 549358] | 91% |  |  |  |  |  | 29% | 63% | 85% | 95% | 0.141 µM | 
549360 (kG*kG*kT*d[5mC]*dG*dA*dA*dG*dT*dG*d[5mC]*d[5mC]*d[5mC]*k[5mC]*k[5mC]*kT; antisense) [compound 549360] | 89% |  |  |  |  |  | 44% | 58% | 79% | 83% | 0.116 µM | 
549361 (kG*kA*k[5mC]*dA*d[5mC]*d[5mC]*dG*dA*d[5mC]*dA*d[5mC]*dT*dG*k[5mC]*k[5mC]*kT; antisense) [compound 549361] | 84% |  |  |  |  |  | 12% | 30% | 52% | 66% | 0.525 µM | 
549362 (k[5mC]*k[5mC]*k[5mC]*dG*dA*dA*dG*d[5mC]*dT*dG*dT*dT*d[5mC]*k[5mC]*k[5mC]*k[5mC]; antisense) [compound 549362] | 85% |  |  |  |  |  | 10% | 23% | 57% | 74% | 0.447 µM | 
549366 (k[5mC]*kT*kT*dG*d[5mC]*d[5mC]*dT*dG*d[5mC]*dG*d[5mC]*dT*dG*kT*k[5mC]*kG; antisense) [compound 549366] | 84% | 44% | 58% | 72% | 91% | 0.129 µM |  |  |  |  |  | 
549371 (kG*kT*kT*dG*dT*dA*dG*dT*dA*dG*dT*d[5mC]*dG*k[5mC]*kG*kA; antisense) [compound 549371] | 93% |  |  |  |  |  | 30% | 52% | 83% | 88% | 0.148 µM | 
549374 (kG*k[5mC]*kG*d[5mC]*dT*dG*d[5mC]*d[5mC]*dG*dT*dA*dG*dT*k[5mC]*k[5mC]*kA; antisense) [compound 549374] | 93% |  |  |  |  |  | 40% | 59% | 83% | 92% | 0.108 µM | 
549386 (kG*k[5mC]*kT*dT*d[5mC]*dA*dT*d[5mC]*dT*d[5mC]*d[5mC]*dA*d[5mC]*kA*kG*kA; antisense) [compound 549386] | 77% |  |  |  |  |  |  |  |  |  |  | 
569214 (antisense kG*kG*kT*dT*dG*dA*dT*dT*dT*dA*dA*dT*kG*kG*kT*eT) [compound 569214] |  |  |  |  |  |  |  |  |  |  |  | percent inhibition of AR (AR mRNA [2]; 62.5 nM, Table 12): 20%; percent inhibition of AR (AR mRNA [2]; 125.0 nM, Table 12): 26%; percent inhibition of AR (AR mRNA [2]; 500.0 nM, Table 12): 62%; percent inhibition of AR (AR mRNA [2]; 1000.0 nM, Table 12): 76%; IC50 (AR mRNA [2]; Table 12): 0.265 µM
